According to ChEMBL document CHEMBL5724914, “Linking interpersonal differences in gut microbiota composition and drug biotransformation activity” (2024):

Tests used:
[1] = The drug is tested on Z-017 corresponding to mouse gut metagenome with ENA study accession number: PRJEB37062 and ENA sample accession number: ERS12561816 for biotransformation under anaerobic condition. The drug concentrations were measured over 9 timepoints collected between 0 and 24 hours of incubation by liquid-chromatography-coupled mass spectrometry (LC–MS); settings: 2 µM
[2] = The drug is tested on Z-014 corresponding to rat gut metagenome with ENA study accession number: PRJEB37062 and ENA sample accession number: ERS12561814 for biotransformation under anaerobic condition. The drug concentrations were measured over 9 timepoints collected between 0 and 24 hours of incubation by liquid-chromatography-coupled mass spectrometry (LC–MS); settings: 2 µM
[3] = human gut metagenome, 24 h, 2 µM
[4] = The drug is tested on WLS-220 corresponding to human gut metagenome with ENA study accession number: PRJEB37062 and ENA sample accession number: ERS12561769 for biotransformation under anaerobic condition. The drug concentrations were measured over 9 timepoints collected between 0 and 24 hours of incubation by liquid-chromatography-coupled mass spectrometry (LC–MS); settings: 2 µM
[5] = The drug is tested on Z-003 corresponding to pig gut metagenome with ENA study accession number: PRJEB37062 and ENA sample accession number: ERS12561803 for biotransformation under anaerobic condition. The drug concentrations were measured over 9 timepoints collected between 0 and 24 hours of incubation by liquid-chromatography-coupled mass spectrometry (LC–MS); settings: 2 µM
[6] = The drug is tested on Z-028 corresponding to mouse gut metagenome with ENA study accession number: PRJEB37062 and ENA sample accession number: ERS12561827 for biotransformation under anaerobic condition. The drug concentrations were measured over 9 timepoints collected between 0 and 24 hours of incubation by liquid-chromatography-coupled mass spectrometry (LC–MS); settings: 2 µM
[7] = The drug is tested on Z-008 corresponding to metagenome with ENA study accession number: PRJEB37062 and ENA sample accession number: ERS12561808 for biotransformation under anaerobic condition. The drug concentrations were measured over 9 timepoints collected between 0 and 24 hours of incubation by liquid-chromatography-coupled mass spectrometry (LC–MS); settings: 2 µM
[8] = human gut metagenome, 24 h, 2 µM; remark: listed apart in the source
[9] = The drug is tested on Z-019 corresponding to rat gut metagenome with ENA study accession number: PRJEB37062 and ENA sample accession number: ERS12561818 for biotransformation under anaerobic condition. The drug concentrations were measured over 9 timepoints collected between 0 and 24 hours of incubation by liquid-chromatography-coupled mass spectrometry (LC–MS); settings: 2 µM
[10] = The drug is tested on Z-018 corresponding to pig gut metagenome with ENA study accession number: PRJEB37062 and ENA sample accession number: ERS12561817 for biotransformation under anaerobic condition. The drug concentrations were measured over 9 timepoints collected between 0 and 24 hours of incubation by liquid-chromatography-coupled mass spectrometry (LC–MS); settings: 2 µM
[11] = human gut metagenome, 24 h, 2 µM; remark: listed apart in the source
[12] = The drug is tested on WLS-086 corresponding to human gut metagenome with ENA study accession number: PRJEB37062 and ENA sample accession number: ERS12561752 for biotransformation under anaerobic condition. The drug concentrations were measured over 9 timepoints collected between 0 and 24 hours of incubation by liquid-chromatography-coupled mass spectrometry (LC–MS); settings: 2 µM
[13] = human gut metagenome, 24 h, 2 µM; remark: listed apart in the source
[14] = The drug is tested on WLS-006 corresponding to human gut metagenome with ENA study accession number: PRJEB37062 and ENA sample accession number: ERS12561741 for biotransformation under anaerobic condition. The drug concentrations were measured over 9 timepoints collected between 0 and 24 hours of incubation by liquid-chromatography-coupled mass spectrometry (LC–MS); settings: 2 µM
[15] = human gut metagenome, 24 h, 2 µM; remark: listed apart in the source
[16] = human gut metagenome, 24 h, 2 µM; remark: listed apart in the source
[17] = The drug is tested on Z-002 corresponding to rabbit gut metagenome with ENA study accession number: PRJEB37062 and ENA sample accession number: ERS12561802 for biotransformation under anaerobic condition. The drug concentrations were measured over 9 timepoints collected between 0 and 24 hours of incubation by liquid-chromatography-coupled mass spectrometry (LC–MS); settings: 2 µM
[18] = human gut metagenome, 24 h, 2 µM; remark: listed apart in the source
[19] = The drug is tested on Z-026 corresponding to metagenome with ENA study accession number: PRJEB37062 and ENA sample accession number: ERS12561825 for biotransformation under anaerobic condition. The drug concentrations were measured over 9 timepoints collected between 0 and 24 hours of incubation by liquid-chromatography-coupled mass spectrometry (LC–MS); settings: 2 µM
[20] = human gut metagenome, 24 h, 2 µM; remark: listed apart in the source
Also: call rule not given here.

Row | Compound | Bacterial Biotransformation [1] | Bacterial Biotransformation [2] | Bacterial Biotransformation [3] | Bacterial Biotransformation [4] | Bacterial Biotransformation [5] | Bacterial Biotransformation [6] | Bacterial Biotransformation [7] | Bacterial Biotransformation [8] | Bacterial Biotransformation [9] | Bacterial Biotransformation [10] | Bacterial Biotransformation [11] | Bacterial Biotransformation [12] | Bacterial Biotransformation [13] | Bacterial Biotransformation [14] | Bacterial Biotransformation [15] | Bacterial Biotransformation [16] | Bacterial Biotransformation [17] | Bacterial Biotransformation [18] | Bacterial Biotransformation [19] | Bacterial Biotransformation [20]
1 | CN1C(=O)CC(C)(c2ccccc2)C1=O (stereo not given) [METHSUXIMIDE] | Compound NOT metabolized | Compound NOT metabolized | Compound NOT metabolized | Compound NOT metabolized | Compound NOT metabolized | Compound NOT metabolized | Compound NOT metabolized | Compound NOT metabolized | Compound NOT metabolized | Compound NOT metabolized | Compound NOT metabolized | Compound metabolized | Compound metabolized | Compound NOT metabolized | Compound NOT metabolized | Compound NOT metabolized | Compound NOT metabolized | Compound NOT metabolized | Compound NOT metabolized | Compound metabolized
2 | COc1ccc2[nH]c([S+]([O-])Cc3ncc(C)c(OC)c3C)nc2c1 (stereo not given) [OMEPRAZOLE] | Compound NOT metabolized | Compound NOT metabolized | Compound metabolized | Compound metabolized | Compound NOT metabolized | Compound metabolized | Compound metabolized | Compound metabolized | Compound NOT metabolized | Compound NOT metabolized | Compound metabolized | Compound metabolized | Compound metabolized | Compound metabolized | Compound metabolized | Compound metabolized | Compound NOT metabolized | Compound metabolized | Compound metabolized | Compound metabolized
3 | O=C(O)CCc1nc(-c2ccccc2)c(-c2ccccc2)o1 [OXAPROZIN] | Compound NOT metabolized | Compound NOT metabolized | Compound metabolized | Compound metabolized | Compound metabolized | Compound NOT metabolized | Compound NOT metabolized | Compound metabolized | Compound NOT metabolized | Compound metabolized | Compound metabolized | Compound metabolized | Compound metabolized | Compound metabolized | Compound metabolized | Compound metabolized | Compound metabolized | Compound metabolized | Compound NOT metabolized | Compound NOT metabolized
